Measured values taken from patent publication US20110034507A1, “FARNESOID X RECEPTOR AGONISTS” (SMITHKLINE BEECHAM CORPORATION, priority 2007, published 2011).

target: T1, Human FXRα Ligand Binding Domain (Homo sapiens, UniProt Q96RI1); experiment: FXR Cofactor Binding Assay (ligand mediated SRC-1 cofactor peptide interaction, time resolved fluorescence); type: biochemical; conditions: FXRα LBD / SRC-1 (LCD2, 676-700) peptide, TRF; read-out: Activity (pEC50) (converted)
T1 construct: polyhistidine (pRSET-A vector leader) (N); made in house; host or cells: E. coli BL21 (DE3), pRSET-A vector
T1 sequence (Q96RI1 237-472 isoform Q96RI1-2): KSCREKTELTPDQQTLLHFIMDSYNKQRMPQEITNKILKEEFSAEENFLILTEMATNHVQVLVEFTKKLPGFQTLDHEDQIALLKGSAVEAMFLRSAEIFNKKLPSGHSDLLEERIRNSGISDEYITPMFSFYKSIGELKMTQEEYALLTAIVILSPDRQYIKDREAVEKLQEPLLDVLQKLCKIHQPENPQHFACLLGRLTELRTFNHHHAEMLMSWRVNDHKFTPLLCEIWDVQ
From the text: Determination of a ligand mediated cofactor peptide interaction to quantify ligand binding to the nuclear receptor Farnesoid X Receptor (FXR). The method measures the ability of putative ligands to modulate the interaction between the purified bacterial expressed FXRα ligand binding domain (LBD) and a synthetic biotinylated peptide based on residues 676-700 of steroid receptor coactivator-1 (SRC-1) (LXXLL-containing domain-2 where L is the amino acid leucine and X indicates any other amino acid (LCD2), 676-700). The sequence of the SRC-1 peptide used is as published in Iannone, M. A., et al., 2001 Cytometry 44:326-337 where the N-terminus was biotinylated (B) and the C-terminus was amidated. Detection of the associated complex was measured by time resolved fluorescence (TRF). The purified LBD of FXR was labeled with biotin, then mixed with stoichiometric amounts of allophycocyanin (APC) labeled streptavidin (Molecular Probes). The biotinylated peptide was then mixed with a ½ stoichiometric amount of europium labeled streptavidin (Wallac Inc). Each was then blocked with a 5 fold excess of biotin and allowed to equilibrate for 15 min. Equimolar amounts of receptor and peptide were mixed together and were allowed to equilibrate for at least 30 min prior to the addition to either a variable or constant concentrations of the sample for which the affinity is to be determined. After equilibration, the time-resolved fluorescent signal was quantitated using a fluorescent plate reader. The affinity of the test compound was estimated from a plot of fluorescence versus concentration of test compound added.
Ligands that promote the complex formation induce a concentration-dependent increase in time-resolved fluorescent signal.
Human FXRα Ligand Binding Domain (FXRα LBD) was expressed in E. coli strain BL21 (DE3) as an amino-terminal polyhistidine tagged fusion protein. Expression was under the control of an isopropyl-β-D-thiogalactopyranoside (IPTG) inducible T7 promoter. DNA encoding this recombinant protein is subcloned into the pRSET-A expression vector (Invitrogen). The coding sequence of Human FXRα LBD was derived from Genbank accession number U 68233 (amino acids 237 to 472).
Ten-liter fermentation batches were grown in Rich PO4 media with 0.1 mg/mL Ampicillin at 25° C. for 12 hours, cooled to 9° C. and held at that temperature for 36 hours to a density of OD600=14. At this cell density, 0.25 mM IPTG is added and induction proceeded for 24 hours at 9° C., to a final OD600=16. Cells are harvested by centrifugation (20 minutes, 3500×gravity, 4° C.), and concentrated cell slurries were stored in phosphate buffered saline (PBS) at […].
Routinely, 30-40 g cell paste (equivalent to 2-3 liters of the fermentation batch) was resuspended in 200-250 mL Tris buffered saline (TBS), pH 7.2 (25 mM Tris-hydroxymethylamino methane (Tris), 150 mM sodium chloride). Cells were lysed by passing 3 times through a French Press and cell debris was removed by centrifugation (30 minutes, 20,000×gravity, 4° C.). The cleared supernatant was filtered through course pre-filters, and TBS, pH 7.2, 500 mM imidazole was added to obtain a final imidazole concentration of 50 mM. This lysate was loaded onto a column (6×8 cm) packed with Sepharose [Ni^++ charged] Chelation resin (Pharmacia) and pre-equilibrated with TBS pH 7.2/50 mM imidazole. After washing to baseline absorbance with equilibration buffer, the column was washed with one column volume of TBS pH 7.2 containing 90 mM imidazole. FXRα LBD was eluted directly with 365 mM imidazole. Column fractions were pooled and dialyzed against TBS, pH 7.2, containing 0.5 mM EDTA and 5 mM DTT. The dialyzed protein sample was concentrated using Centri-prep 10 K (Amicon) and subjected to size exclusion, using a column (3×90 cm) packed with Sepharose S-75 resin (Pharmacia) pre-equilibrated with TBS, pH 7.2, containing 0.5 mM ethylene diamine tetraacetic acid (EDTA) and 5 mM dithiothreitol (DTT).

SMILES	EC50 [nM]
CC(C)c1onc(-c2c(Cl)cccc2Cl)c1COc1ccc2cc(-c3cncc(C(=O)O)c3)ccc2c1 [Example 17, 5-[6-({[3-(2,6-Dichlorophenyl)-5-(1-methylethyl)-4-isoxazolyl]methyl}oxy)-2-naphthalenyl]-3-pyridinecarboxylic acid]	102 to 1000
CC(C)c1onc(COc2c(Cl)cccc2Cl)c1COc1ccc2c(ccn2Cc2cccc(C(=O)O)c2)c1 [Example 15, 3-{[5-({[3-{[(2,6-Dichlorophenyl)oxy]methyl}-5-(1-methylethyl)-4-isoxazolyl]methyl}oxy)-1H-indol-1-yl]methyl}benzoic acid]	102 to 1000
CC(C)c1onc(-c2c(Cl)cccc2Cl)c1COc1ccc2cc(-c3cccc(C(=O)O)c3)ccc2c1 [Example 38, 3-[6-({[3-(2,6-Dichlorophenyl)-5-(1-methylethyl)-4-isoxazolyl]methyl}oxy)-2-naphthalenyl]benzoic acid]	102 to 1000
Cc1cccc(C)c1OCc1noc(C(C)C)c1COc1ccc2c(ccn2Cc2cccc(C(=O)O)c2)c1 [Example 1, 3-{[5-({[3-{[(2,6-dimethylphenyl)oxy]methyl}-5-(1-methylethyl)-4-isoxazolyl]methyl}oxy)-1H-indol-1-yl]methyl}benzoic acid]	102 to 1000
CC(C)c1onc(-c2c(Cl)cccc2Cl)c1COc1ccc2cc(-c3cccc(OC(F)(F)F)c3)ccc2c1 [Example 30, 3-(2,6-Dichlorophenyl)-5-(1-methylethyl)-4-{[(6-{3-[(trifluoromethyl)oxy]phenyl}-2-naphthalenyl)oxy]methyl}isoxazole]	102 to 1000
CC(C)c1onc(-c2c(Cl)cccc2Cl)c1COc1ccc2c(ccn2Cc2nc(C(=O)O)cs2)c1 [Example 51, 2-{[5-({[3-(2,6-Dichlorophenyl)-5-(1-methylethyl)-4-isoxazolyl]methyl}oxy)-1H-indol-1-yl]methyl}-1,3-thiazole-4-carboxylic acid]	102 to 1000
CC(C)c1onc(-c2c(Cl)cccc2Cl)c1COc1ccc2cc(-c3cccc(C(=O)O)c3)sc2c1 [Example 36, 3-[6-({[3-(2,6-Dichlorophenyl)-5-(1-methylethyl)-4-isoxazolyl]methyl}oxy)-1-benzothien-2-yl]benzoic acid]	102 to 1000
CC(=O)Nc1ccc(-c2ccc3cc(OCc4c(-c5c(Cl)cccc5Cl)noc4C(C)C)ccc3c2)cc1 [Example 31, N-{4-[6-({[3-(2,6-dichlorophenyl)-5-(1-methylethyl)-4-isoxazolyl]methyl}oxy)-2-naphthalenyl]phenyl}acetamide]	102 to 1000
CC(C)c1onc(-c2c(Cl)cccc2Cl)c1COc1ccc2cc(-c3cccc(C(=O)O)n3)ccc2c1 [Example 18, 6-[6-({[3-(2,6-Dichlorophenyl)-5-(1-methylethyl)-4-isoxazolyl]methyl}oxy)-2-naphthalenyl]-2-pyridinecarboxylic acid]	102 to 1000
CC(C)c1onc(-c2c(Cl)cccc2Cl)c1COc1ccc2cc(-c3ccc(C(=O)O)cc3)sc2c1 [Example 9, 4-[6-({[3-(2,6-Dichlorophenyl)-5-(1-methylethyl)-4-isoxazolyl]methyl}oxy)-1-benzothien-2-yl]benzoic acid]	102 to 1000
CC(C)c1onc(-c2c(Cl)cccc2Cl)c1COc1ccc2c(ccn2Cc2nc(C(=O)O)co2)c1 [Example 47, 2-{[5-({[3-(2,6-Dichlorophenyl)-5-(1-methylethyl)-4-isoxazolyl]methyl}oxy)-1H-indol-1-yl]methyl}-1,3-oxazole-4-carboxylic acid]	102 to 1000
CC(C)c1onc(-c2c(Cl)cccc2Cl)c1CCc1nc2cc(-c3cccc(C(=O)O)c3)ccc2o1 [Example 39, 3-(2-{2-[3-(2,6-dichlorophenyl)-5-(1-methylethyl)-4-isoxazolyl]ethyl}-1,3-benzoxazol-5-yl)benzoic acid]	1020 to 10000
CC(C)c1onc(-c2c(Cl)cccc2Cl)c1COc1ccc2c(Nc3cccc(C(=O)O)c3)cccc2c1 [Example 40, 3-{[6-({[3-(2,6-Dichlorophenyl)-5-(1-methylethyl)-4-isoxazolyl]methyl}oxy)-1-naphthalenyl]amino}benzoic acid]	102 to 1000
CC(=O)Nc1cccc(-c2ccc3cc(OCc4c(-c5c(Cl)cccc5Cl)noc4C(C)C)ccc3c2)c1 [Example 29, N-{3-[6-({[3-(2,6-dichlorophenyl)-5-(1-methylethyl)-4-isoxazolyl]methyl}oxy)-2-naphthalenyl]phenyl}acetamide]	102 to 1000
CC(C)c1onc(-c2c(Cl)cccc2Cl)c1CCc1nc2cccc(Nc3cccc(C(=O)O)c3)c2o1 [Example 41, 3-[(2-{2-[3-(2,6-Dichlorophenyl)-5-(1-methylethyl)-4-isoxazolyl]ethyl}-1,3-benzoxazol-7-yl)amino]benzoic acid]	1020 to 10000

Further lines, results first:

EC50 [nM]	SMILES
102 to 1000	CC(C)c1onc(-c2c(Cl)cccc2Cl)c1COc1ccc2cc(-c3cccc(N(S(=O)(=O)C(F)(F)F)S(=O)(=O)C(F)(F)F)c3)ccc2c1 [Example 26, N-{3-[6-({[3-(2,6-Dichlorophenyl)-5-(1-methylethyl)-4-isoxazolyl]methyl}oxy)-2-naphthalenyl]phenyl}-1,1,1-trifluoro-N-[(trifluoromethyl)sulfonyl]methanesulfonamide]
1020 to 10000	CC(C)c1onc(-c2c(Cl)cccc2Cl)c1COc1ccc2[nH]cc(Cc3cccc(C(=O)O)c3)c2c1 [Example 50, 3-{[5-({[3-(2,6-Dichlorophenyl)-5-(1-methylethyl)-4-isoxazolyl]methyl}oxy)-1H-indol-3-yl]methyl}benzoic acid]
102 to 1000	CC(C)c1onc(-c2c(Cl)cccc2Cl)c1COc1ccc2cc(-c3ccc(C(=O)O)s3)ccc2c1 [Example 25, 5-[6-({[3-(2,6-Dichlorophenyl)-5-(1-methylethyl)-4-isoxazolyl]methyl}oxy)-2-naphthalenyl]-2-thiophenecarboxylic acid]
102 to 1000	CC(C)c1onc(-c2c(Cl)cccc2Cl)c1COc1ccc2cc(-c3ccc(C(=O)O)cc3)ccc2c1 [Example 22, 4-[6-({[3-(2,6-Dichlorophenyl)-5-(1-methylethyl)-4-isoxazolyl]methyl}oxy)-2-naphthalenyl]benzoic acid]
102 to 1000	CC(C)c1onc(COc2c(Br)cccc2Br)c1COc1ccc2c(ccn2Cc2cccc(C(=O)O)c2)c1 [Example 5, 3-{[5-({[3-{[(2,6-dibromophenyl)oxy]methyl}-5-(1-methylethyl)-4-isoxazolyl]methyl}oxy)-1H-indol-1-yl]methyl}benzoic acid]
102 to 1000	CC(C)c1onc(-c2c(Cl)cccc2Cl)c1COc1ccc2c(ccn2Cc2cccc(C(=O)O)c2)c1 [Example 59, 3-{[5-({[3-(2,6-Dichlorophenyl)-5-(1-methylethyl)-4-isoxazolyl]methyl}oxy)-1H-indol-1-yl]methyl}benzoic acid]
102 to 1000	CC(C)c1onc(-c2c(Cl)cccc2Cl)c1CNc1nc2ccc(-c3cccc(C(=O)O)c3)cc2s1 [Example 37, 3-[2-({[3-(2,6-Dichlorophenyl)-5-(1-methylethyl)-4-isoxazolyl]methyl}amino)-1,3-benzothiazol-6-yl]benzoic acid]
